The text below walks through data of ChEMBL document CHEMBL1134234, “NO-independent stimulators of soluble guanylate cyclase” (Bioorg Med Chem Lett, 2001).

Usually IC50 stands for the concentration that inhibits the measured activity by half. Read a high IC50 as weaker potency. Usually Inhibition stands for the drop in the measured response relative to a control, in per cent.

For experiment [1], the species on record is Oryctolagus cuniculus. Kind of experiment: (§1) Ability to inhibit maximum constriction of phenylephrine-treated precontracted (3x10 -8 g/mL) rabbit aortic rings. The experiment is classed as functional. Particulars: Aorta.
For experiment [2], the species on record is Oryctolagus cuniculus. Described as §1. The class given is functional, Aorta.

`OCc1ccc(-c2nn(Cc3c(F)cccc3F)c3ccccc23)o1` came in with an IC50 in the experiment listed under Oryctolagus cuniculus [1] of 15 µM. In turn, `OCc1ccc(-c2nn(Cc3ccccc3F)c3cccnc23)o1` had an Inhibition in the experiment filed under Oryctolagus cuniculus [2] of 27%. In the experiment filed under Oryctolagus cuniculus [1], this compound showed a concentration for half-maximal inhibition (IC50) of 20.4 µM. In the experiment filed under Oryctolagus cuniculus [1], `Cc1cnc(-c2nn(Cc3ccccc3F)c3ncccc23)nc1N` registered an IC50 of 675 µM. Turning to `Nc1nc(-c2nn(Cc3ccccc3F)c3ncccc23)ncc1CC(F)(F)F`, in the experiment filed under Oryctolagus cuniculus [1], the IC50 was determined as 508 µM. This IC50 and that of the compound before are within 1.5-fold of each other. In the experiment listed under Oryctolagus cuniculus [1], `Fc1ccccc1Cn1nc(C2=NCCN2)c2cccnc21` had a 50% inhibitory concentration (IC50) of 3.2 µM. This IC50 is about 160-fold lower than that of the compound before.

Take `OCc1ccc(-c2nn(Cc3cccnc3)c3ccccc23)o1`: it took 9.6 µM to reach half-maximal inhibition in the experiment filed under Oryctolagus cuniculus [1] (IC50). This IC50 is about 3-fold higher than that of the compound before. On to `NCc1cnc(-c2nn(Cc3ccccc3F)c3ncccc23)nc1N`, for which half-maximal inhibition in the experiment filed under Oryctolagus cuniculus [1] (IC50) was put at 1.4 µM. Same read-out and setting: in the case of `CC(C)(C)c1cnc(-c2nn(Cc3ccccc3F)c3ncccc23)nc1N` it was 0.709 µM. For the compound `OCc1ccc(-c2nn(Cc3ccccc3F)c3ncncc23)o1`, half-maximal inhibition in the experiment listed under Oryctolagus cuniculus [1] (IC50) required 9.4 µM. Against the preceding compound, the IC50 is about 13-fold higher. Same read-out and setting: the value for `CCCCCc1cnc(-c2nn(Cc3ccccc3F)c3ncccc23)nc1N` was 200 µM; that for `CCc1cnc(-c2nn(Cc3ccccc3F)c3ncccc23)nc1N` was 272 µM; that for `Cc1cc(N)nc(-c2nn(Cc3ccccc3F)c3ncccc23)n1` was 536 µM. In turn, `NS(=O)(=O)c1ccc(-c2nn(Cc3ccccc3F)c3ncccc23)o1` returned an IC50 in the experiment filed under Oryctolagus cuniculus [1] of 8 µM. `Nc1nc(-c2nn(Cc3ccccc3F)c3ncccc23)ncc1C1CCCCC1` came in with an IC50 in the experiment listed under Oryctolagus cuniculus [1] of 561 µM. On the same count and under the same terms, in the case of `OCc1ccc(-c2nn(Cc3ccccc3F)c3ccccc23)o1` it was 4.9 µM; in that of `OCc1ccc(-c2nn(Cc3ccc(F)cc3)c3ccccc23)o1`, 19 µM; in that of `CCCCCCc1cnc(-c2nn(Cc3ccccc3F)c3ncccc23)nc1N`, 1.04 µM.

Turning to `Nc1nc(-c2nn(Cc3ccccc3F)c3ncccc23)ncc1N1CCSCC1`, the IC50 in the experiment filed under Oryctolagus cuniculus [1] was 650 µM. `OCc1ccc(-c2nn(Cc3ccccc3F)c3ncccc23)o1`: the concentration for half-maximal inhibition (IC50) in the experiment filed under Oryctolagus cuniculus [1] amounted to 1.7 µM. The compound `Nc1nc(-c2nn(Cc3ccccc3F)c3ncccc23)ncc1C1=CCCC1` displayed a 50% inhibitory concentration (IC50) in the experiment filed under Oryctolagus cuniculus [1] of 0.836 µM. For the compound `OCc1ccc(-c2nn(Cc3cccc(F)c3)c3ccccc23)o1`, in the experiment filed under Oryctolagus cuniculus [1], the IC50 was found to be 10 µM. `OCc1ccc(-c2nn(Cc3ccccn3)c3ccccc23)o1` yielded an IC50 in the experiment listed under Oryctolagus cuniculus [1] of 16 µM. In the experiment filed under Oryctolagus cuniculus [1], `Fc1ccccc1Cn1nc(-c2nn[nH]n2)c2cccnc21` came in with an IC50 of 8.6 µM. Turning to `Nc1nc(-c2nn(Cc3ccccc3F)c3ncccc23)ncc1C1CCC1`, the 50% inhibitory concentration (IC50) in the experiment filed under Oryctolagus cuniculus [1] amounted to 633 µM. `Nc1nc(-c2nn(Cc3ccccc3F)c3ncccc23)ncc1F` gave an IC50 in the experiment filed under Oryctolagus cuniculus [1] of 478 µM.

Regarding `CC(C)S(=O)(=O)c1cnc(-c2nn(Cc3ccccc3F)c3ncccc23)nc1N`, in the experiment listed under Oryctolagus cuniculus [1], 517 µM corresponded to half-maximal inhibition (IC50). Turning to `Fc1ccccc1Cn1nc(-c2ccccn2)c2cccnc21`, the IC50 in the experiment filed under Oryctolagus cuniculus [1] came out at 4.8 µM. Against the preceding compound, the IC50 is about 110-fold lower.

On to `CC(C)c1cnc(-c2nn(Cc3ccccc3F)c3ncccc23)nc1N`, for which inhibition in the experiment filed under Oryctolagus cuniculus [1] was half-maximal at 207 µM (IC50).

Compound `CSc1cnc(-c2nn(Cc3ccccc3F)c3ncccc23)nc1N` gave an IC50 in the experiment listed under Oryctolagus cuniculus [1] of 243 µM. In turn, `OCc1ccc(-c2nn(Cc3ccccc3F)c3ccncc23)o1` came in with an IC50 in the experiment filed under Oryctolagus cuniculus [1] of 9.8 µM. With `Nc1nc(-c2nn(Cc3ccccc3F)c3ncccc23)ncc1N1CCOCC1`, inhibition in the experiment listed under Oryctolagus cuniculus [1] was half-maximal at 306 µM (IC50).

Turning to `CS(=O)(=O)c1cnc(-c2nn(Cc3ccccc3F)c3ncccc23)nc1N`, the IC50 in the experiment filed under Oryctolagus cuniculus [1] is 261 µM. As to `Nc1nc(-c2nn(Cc3ccccc3F)c3ncccc23)nc(N)c1C1CC1`, the half-maximal inhibitory concentration (IC50) in the experiment filed under Oryctolagus cuniculus [1] came to 233 µM.

As for `OCc1ccc(-c2nn(Cc3ccc(Cl)s3)c3ccccc23)o1`, the 50% inhibitory concentration (IC50) in the experiment filed under Oryctolagus cuniculus [1] was found to be 7.2 µM. This IC50 lies about 32-fold lower than the previous one.

The compound `OCc1ccc(-c2nn(Cc3ccccc3F)c3cnccc23)o1` gave an IC50 in the experiment listed under Oryctolagus cuniculus [1] of 6.93 µM. In the experiment filed under Oryctolagus cuniculus [1], `CCCS(=O)(=O)c1cnc(-c2nn(Cc3ccccc3F)c3ncccc23)nc1N` yielded an IC50 of 378 µM.

For `N#Cc1ccccc1Cn1nc(-c2ccc(CO)o2)c2ccccc21`, the IC50 in the experiment filed under Oryctolagus cuniculus [1] came to 8.7 µM.

With `CCCCc1cnc(-c2nn(Cc3ccccc3F)c3ncccc23)nc1N`, the midpoint of inhibition in the experiment listed under Oryctolagus cuniculus [1], the IC50, lay at 218 µM.

Compound `Fc1ccccc1Cn1nc(-c2cc[nH]n2)c2cccnc21` came in with an IC50 in the experiment filed under Oryctolagus cuniculus [1] of 1.8 µM.

For the compound `OCc1ccc(-c2nn(Cc3cncnc3)c3ccccc23)o1`, in the experiment filed under Oryctolagus cuniculus [1], the IC50 is 3.2 µM. The same measure, in the same setting: in the case of `CCOP(=O)(OCC)c1cnc(-c2nn(Cc3ccccc3F)c3ncccc23)nc1N` it was 414 µM; in that of `Cc1coc(-c2nn(Cc3ccccc3F)c3ncccc23)n1`, 1.2 µM; in that of `Cc1nc(-c2nn(Cc3ccccc3F)c3ncccc23)oc1CO`, 0.9 µM. Take `Fc1ccccc1Cn1nc(-c2ccco2)c2cccnc21`: the IC50 in the experiment filed under Oryctolagus cuniculus [1] is 9.3 µM. As for `N#Cc1cnc(-c2nn(Cc3ccccc3F)c3ncccc23)nc1N`, in the experiment filed under Oryctolagus cuniculus [1], the IC50 turned out to be 391 µM. In the experiment filed under Oryctolagus cuniculus [1], `Nc1nc(-c2nn(Cc3ccccc3F)c3ncccc23)ncc1C1CCCC1` yielded an IC50 of 0.904 µM.

In the experiment filed under Oryctolagus cuniculus [1], `CCCc1cnc(-c2nn(Cc3ccccc3F)c3ncccc23)nc1N` returned an IC50 of 252 µM.

As to `N#Cc1cccc(Cn2nc(-c3ccc(CO)o3)c3ccccc32)c1`, in the experiment filed under Oryctolagus cuniculus [1], the IC50 stood at 26 µM. Compared with the last compound, the IC50 is about 9.7-fold lower.

In the experiment filed under Oryctolagus cuniculus [1], `Fc1ccccc1Cn1nc(-c2ncccn2)c2cccnc21` yielded an IC50 of 1.25 µM. With `Cc1oc(-c2nn(Cc3ccccc3F)c3ncccc23)nc1CO`, the IC50 in the experiment listed under Oryctolagus cuniculus [1] amounted to 1.5 µM. This IC50 and that of the compound before are within 1.5-fold of each other. `COc1cnc(-c2nn(Cc3ccccc3F)c3ncccc23)nc1N` showed an IC50 in the experiment listed under Oryctolagus cuniculus [1] of 343 µM. Compound `N#CCCc1cnc(-c2nn(Cc3ccccc3F)c3ncccc23)nc1N` showed an IC50 in the experiment listed under Oryctolagus cuniculus [1] of 412 µM. This IC50 and that of the compound before are within 1.5-fold of each other.

Compound `Nc1nc(-c2nn(Cc3ccccc3F)c3ncccc23)ncc1C1CC1` registered an IC50 in the experiment filed under Oryctolagus cuniculus [1] of 304 µM. `CCc1c[nH]c(-c2nn(Cc3ccccc3F)c3ncccc23)n1` had an IC50 in the experiment filed under Oryctolagus cuniculus [1] of 0.6 µM. In the experiment filed under Oryctolagus cuniculus [1], `CC(C#N)CCCCCc1cnc(-c2nn(Cc3ccccc3F)c3ncccc23)nc1N` (centres undefined) registered an IC50 of 1290 µM.

With `OCc1ccc(-c2nn(Cc3ccccc3)c3ccccc23)o1`, the IC50 in the experiment listed under Oryctolagus cuniculus [1] was found to be 10 µM. This IC50 is about 130-fold lower than that of the compound before. In the experiment filed under Oryctolagus cuniculus [1], `N#CCCCCCc1cnc(-c2nn(Cc3ccccc3F)c3ncccc23)nc1N` returned an IC50 of 588 µM. On the same count and under the same terms, in the case of `OCc1ccnc(-c2nn(Cc3ccccc3F)c3ncccc23)n1` it was 1.3 µM.
